Source: US11697648B2, “Fused pyrimidine pyridinone compounds as JAK inhibitors” (THERAVANCE BIOPHARMA R&D IP, LLC, priority 2019, dated 2023)

Assays:
JAK1 = JAK1 (Homo sapiens (Human), UniProt P23458); experiment: Biochemical JAK1 kinase assay (LanthaScreen)
Protocol: (§1) Assay 1: Biochemical JAK and Tyk2 Kinase Assays
(§2) A panel of four LanthaScreen JAK biochemical assays (JAK1, 2, 3 and Tyk2) were carried in a common kinase reaction buffer (50 mM HEPES, pH 7.5, 0.01% Brij-35, 10 mM MgCl2, and 1 mM EGTA). Recombinant GST-tagged JAK enzymes and a GFP-tagged STAT1 peptide substrate were obtained from Life Technologies.
(§3) Serially or discretely diluted compounds were pre-incubated with each of the four JAK enzymes and the substrate in white 384-well microplates (Corning) at ambient temperature for 1 h. ATP was subsequently added to initiate the kinase reactions in 10 μL total volume, with 1% DMSO. […] Kinase reactions were allowed to proceed for 1 hour at ambient temperature before a 10 μL preparation of EDTA (10 mM final concentration) and Tb-anti-pSTAT1 (pTyr701) antibody (Life Technologies, 2 nM final concentration) in TR-FRET dilution buffer (Life Technologies) was added. The plates were allowed to incubate at ambient temperature for 1 h before being read on the EnVision reader (Perkin Elmer). Emission ratio signals (520 nm/495 nm) were recorded and utilized to calculate the percent inhibition values based on DMSO and background controls.
(§4) For dose-response analysis, percent inhibition data were plotted vs. compound concentrations, and IC50 values were determined from a 4-parameter robust fit model with the Prism software (GraphPad Software). Results were expressed as pIC50 (negative logarithm of IC50) and subsequently converted to pKi (negative logarithm of dissociation constant, Ki) using the Cheng-Prusoff equation.

JAK2 = JAK2 (Homo sapiens (Human), UniProt O60674); experiment: Biochemical JAK2 kinase assay (LanthaScreen)
Protocol: as §1, §2, §3, §4

JAK3 = JAK3 (Homo sapiens (Human), UniProt P52333); experiment: Biochemical JAK3 kinase assay (LanthaScreen)
Protocol: as §1, §2, §3, §4

Tyk2 = Tyk2 (Homo sapiens (Human), UniProt P29597); experiment: Biochemical Tyk2 kinase assay (LanthaScreen)
Protocol: as §1, §2, §3, §4

[1] = test system: IL-2 stimulated STAT5 phosphorylation in Tall-1 human T cell line (JAK3); experiment: Cellular JAK3 potency assay: inhibition of IL-2 stimulated pSTAT5 in Tall-1 T cells; type: cell-based
Protocol: Assay 2: Cellular JAK3 Potency Assay: Inhibition of IL-2 Stimulated pSTAT5 in Tall-1 T Cells
The potency of test compounds for inhibition of interleukin-2 (IL-2) stimulated STAT5 phosphorylation was measured in the Tall-1 human T cell line (DSMZ) using AlphaLisa. Because IL-2 signals through JAK3, this assay provides a measure of JAK3 cellular potency.
Phosphorylated STAT5 was measured via the AlphaLISA SureFire Ultra pSTAT5 (Tyr694/699) kit (PerkinElmer).
Human T cells from the Tall-1 cell line were cultured in a 37° C., 5% CO2 humidified incubator in RPMI (Life Technologies) supplemented with 15% Heat Inactivated Fetal Bovine Serum (FBS, Life Technologies), 2 mM Glutamax (Life Technologies), 25 mM HEPES (Life Technologies) and 1× Pen/Strep (Life Technologies). Compounds were serially diluted in DMSO and dispensed acoustically to empty wells. Assay media (phenol red-free DMEM (Life Technologies) supplemented with 10% FBS (ATCC)) was dispensed (4 μL/well) and plates shaken at 900 rpm for 10 inns. Cells were seeded at 45,000 cells/well in assay media (4 μL/well), and incubated at 37° C., 5% CO2 for 1 hour, followed by the addition of IL-2 (R&D Systems; final concentration 300 ng/ml) in pre-warmed assay media (4 μL) for 30 minutes. After cytokine stimulation, cells were lysed with 6 ul of 3× AlphaLisa Lysis Buffer (PerkinElmer) containing 1× PhosStop and Complete tablets (Roche). The lysate was shaken at 900 rpm for 10 minutes at room temperature (RT). Phosphorylated STAT5 was measured via the pSTAT5 AlphaLisa kit (PerkinElmer). Freshly prepared acceptor bead mixture was dispensed onto lysate (5 μL) under green filtered <100 lux light. Plates were shaken at 900 rpm for 2 mins, briefly spun down, and incubated for 2 hrs at RT in the dark. Donor beads were dispensed (5 μL) under green filtered <100 lux light. Plates were shaken at 900 rpm for 2 minutes, briefly spun down, and incubated overnight at RT in the dark. Luminescence was measured with excitation at 689 nm and emission at 570 nm using an EnVision plate reader (PerkinElmer) under green filtered <100 lux light.
To determine the inhibitory potency of test compounds in response to IL-2, the average emission intensity of beads bound to pSTAT5 was measured in a human T cell line. IC50 values were determined from analysis of the inhibition curves of signal intensity versus compound concentration. Data are expressed as pIC50 (negative decadic logarithm IC50) values (mean standard deviation).

[2] = selectivity JAK3 over JAK1, difference of pKi
[3] = IL-2 stimulated pSTAT5, Tall-1 T cells
[4] = selectivity, difference of pKi values
[5] = IL-2 stimulated pSTAT5 in Tall-1 T cells

Chain of JAK1 (P23458 whole entry): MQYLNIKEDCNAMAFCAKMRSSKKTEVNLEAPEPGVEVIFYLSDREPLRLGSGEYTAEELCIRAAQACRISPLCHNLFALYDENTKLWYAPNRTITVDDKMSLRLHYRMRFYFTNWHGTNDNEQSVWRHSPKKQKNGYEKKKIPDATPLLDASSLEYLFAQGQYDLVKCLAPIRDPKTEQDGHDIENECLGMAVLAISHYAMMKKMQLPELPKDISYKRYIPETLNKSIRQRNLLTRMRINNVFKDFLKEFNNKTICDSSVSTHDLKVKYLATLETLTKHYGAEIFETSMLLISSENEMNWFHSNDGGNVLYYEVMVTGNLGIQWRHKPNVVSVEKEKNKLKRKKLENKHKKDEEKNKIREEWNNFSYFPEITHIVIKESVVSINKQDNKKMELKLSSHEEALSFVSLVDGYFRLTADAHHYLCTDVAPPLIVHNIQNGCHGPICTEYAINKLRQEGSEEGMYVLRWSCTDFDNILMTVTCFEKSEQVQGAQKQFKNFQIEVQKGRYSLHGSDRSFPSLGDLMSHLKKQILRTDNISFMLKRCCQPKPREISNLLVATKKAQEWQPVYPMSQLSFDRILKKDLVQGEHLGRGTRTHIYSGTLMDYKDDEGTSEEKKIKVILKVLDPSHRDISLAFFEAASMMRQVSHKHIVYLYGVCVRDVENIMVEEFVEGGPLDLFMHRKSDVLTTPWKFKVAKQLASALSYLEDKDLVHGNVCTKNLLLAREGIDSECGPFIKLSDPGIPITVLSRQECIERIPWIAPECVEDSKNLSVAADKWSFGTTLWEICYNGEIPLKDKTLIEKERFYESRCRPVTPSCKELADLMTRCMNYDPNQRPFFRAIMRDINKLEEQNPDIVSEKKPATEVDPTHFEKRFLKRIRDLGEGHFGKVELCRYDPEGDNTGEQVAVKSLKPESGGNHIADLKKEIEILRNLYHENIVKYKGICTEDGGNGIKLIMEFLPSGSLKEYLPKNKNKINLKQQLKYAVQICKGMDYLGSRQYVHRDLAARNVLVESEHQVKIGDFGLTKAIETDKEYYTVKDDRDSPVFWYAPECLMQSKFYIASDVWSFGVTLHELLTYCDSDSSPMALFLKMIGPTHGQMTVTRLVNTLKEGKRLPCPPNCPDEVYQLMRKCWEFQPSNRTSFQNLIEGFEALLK
Chain of JAK2 (O60674 whole entry): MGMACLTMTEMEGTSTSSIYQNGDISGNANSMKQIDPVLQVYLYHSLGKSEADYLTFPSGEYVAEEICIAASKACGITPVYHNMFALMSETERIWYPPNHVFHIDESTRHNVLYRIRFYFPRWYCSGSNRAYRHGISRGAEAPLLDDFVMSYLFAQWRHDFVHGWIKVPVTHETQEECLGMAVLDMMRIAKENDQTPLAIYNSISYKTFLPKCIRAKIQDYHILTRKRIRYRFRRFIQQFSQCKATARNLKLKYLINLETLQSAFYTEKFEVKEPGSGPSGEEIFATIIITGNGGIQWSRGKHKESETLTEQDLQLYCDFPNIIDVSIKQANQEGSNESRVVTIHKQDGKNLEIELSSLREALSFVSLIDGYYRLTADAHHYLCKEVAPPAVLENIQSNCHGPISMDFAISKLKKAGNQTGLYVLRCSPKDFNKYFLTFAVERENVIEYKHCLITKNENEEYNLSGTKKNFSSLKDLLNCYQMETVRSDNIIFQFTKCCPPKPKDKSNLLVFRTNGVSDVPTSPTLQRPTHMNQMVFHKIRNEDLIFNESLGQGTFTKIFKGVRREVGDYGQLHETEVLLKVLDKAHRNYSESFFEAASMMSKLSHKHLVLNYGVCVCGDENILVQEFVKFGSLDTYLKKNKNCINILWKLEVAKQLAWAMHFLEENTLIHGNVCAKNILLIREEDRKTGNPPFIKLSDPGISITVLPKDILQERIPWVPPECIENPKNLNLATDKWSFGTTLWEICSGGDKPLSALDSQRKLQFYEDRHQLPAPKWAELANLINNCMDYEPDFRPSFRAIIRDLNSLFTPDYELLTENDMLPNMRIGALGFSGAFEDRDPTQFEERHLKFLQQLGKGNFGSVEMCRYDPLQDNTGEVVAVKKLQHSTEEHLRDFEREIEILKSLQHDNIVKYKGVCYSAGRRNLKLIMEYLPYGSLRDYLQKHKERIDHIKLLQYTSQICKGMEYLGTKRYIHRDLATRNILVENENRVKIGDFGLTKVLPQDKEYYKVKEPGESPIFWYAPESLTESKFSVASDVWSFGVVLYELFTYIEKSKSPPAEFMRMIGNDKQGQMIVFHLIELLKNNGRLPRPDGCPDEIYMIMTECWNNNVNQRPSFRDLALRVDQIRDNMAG
Chain of JAK3 (P52333 whole entry): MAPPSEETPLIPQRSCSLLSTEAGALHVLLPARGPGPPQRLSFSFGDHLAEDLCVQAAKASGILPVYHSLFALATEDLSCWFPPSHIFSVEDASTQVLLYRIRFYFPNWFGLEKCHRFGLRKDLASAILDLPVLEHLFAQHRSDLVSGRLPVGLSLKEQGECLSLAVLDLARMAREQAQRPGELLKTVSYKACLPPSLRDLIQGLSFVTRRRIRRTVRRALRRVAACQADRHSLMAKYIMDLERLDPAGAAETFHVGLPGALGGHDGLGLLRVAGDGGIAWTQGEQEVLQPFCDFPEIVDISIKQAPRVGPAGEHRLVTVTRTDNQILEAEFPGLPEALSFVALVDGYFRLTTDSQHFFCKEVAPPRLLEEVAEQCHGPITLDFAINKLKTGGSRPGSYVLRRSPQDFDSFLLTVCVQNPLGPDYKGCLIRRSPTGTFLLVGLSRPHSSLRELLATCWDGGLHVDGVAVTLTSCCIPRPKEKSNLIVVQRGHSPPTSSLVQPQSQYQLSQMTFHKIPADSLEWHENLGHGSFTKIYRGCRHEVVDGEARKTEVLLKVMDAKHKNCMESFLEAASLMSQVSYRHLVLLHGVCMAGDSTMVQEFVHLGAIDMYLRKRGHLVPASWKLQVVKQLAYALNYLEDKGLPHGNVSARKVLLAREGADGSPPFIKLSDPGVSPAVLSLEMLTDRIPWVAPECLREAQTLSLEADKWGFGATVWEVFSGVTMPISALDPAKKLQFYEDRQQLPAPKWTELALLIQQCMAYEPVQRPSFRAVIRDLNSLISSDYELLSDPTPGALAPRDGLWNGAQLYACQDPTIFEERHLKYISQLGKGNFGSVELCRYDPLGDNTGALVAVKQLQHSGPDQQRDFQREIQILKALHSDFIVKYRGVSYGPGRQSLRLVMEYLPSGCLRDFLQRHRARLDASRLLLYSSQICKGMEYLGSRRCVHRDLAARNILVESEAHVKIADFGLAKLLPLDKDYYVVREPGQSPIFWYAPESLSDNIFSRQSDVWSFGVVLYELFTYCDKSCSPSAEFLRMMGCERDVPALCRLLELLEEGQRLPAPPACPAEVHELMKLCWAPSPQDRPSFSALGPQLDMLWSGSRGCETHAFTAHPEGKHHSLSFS
Chain of Tyk2 (P29597 whole entry): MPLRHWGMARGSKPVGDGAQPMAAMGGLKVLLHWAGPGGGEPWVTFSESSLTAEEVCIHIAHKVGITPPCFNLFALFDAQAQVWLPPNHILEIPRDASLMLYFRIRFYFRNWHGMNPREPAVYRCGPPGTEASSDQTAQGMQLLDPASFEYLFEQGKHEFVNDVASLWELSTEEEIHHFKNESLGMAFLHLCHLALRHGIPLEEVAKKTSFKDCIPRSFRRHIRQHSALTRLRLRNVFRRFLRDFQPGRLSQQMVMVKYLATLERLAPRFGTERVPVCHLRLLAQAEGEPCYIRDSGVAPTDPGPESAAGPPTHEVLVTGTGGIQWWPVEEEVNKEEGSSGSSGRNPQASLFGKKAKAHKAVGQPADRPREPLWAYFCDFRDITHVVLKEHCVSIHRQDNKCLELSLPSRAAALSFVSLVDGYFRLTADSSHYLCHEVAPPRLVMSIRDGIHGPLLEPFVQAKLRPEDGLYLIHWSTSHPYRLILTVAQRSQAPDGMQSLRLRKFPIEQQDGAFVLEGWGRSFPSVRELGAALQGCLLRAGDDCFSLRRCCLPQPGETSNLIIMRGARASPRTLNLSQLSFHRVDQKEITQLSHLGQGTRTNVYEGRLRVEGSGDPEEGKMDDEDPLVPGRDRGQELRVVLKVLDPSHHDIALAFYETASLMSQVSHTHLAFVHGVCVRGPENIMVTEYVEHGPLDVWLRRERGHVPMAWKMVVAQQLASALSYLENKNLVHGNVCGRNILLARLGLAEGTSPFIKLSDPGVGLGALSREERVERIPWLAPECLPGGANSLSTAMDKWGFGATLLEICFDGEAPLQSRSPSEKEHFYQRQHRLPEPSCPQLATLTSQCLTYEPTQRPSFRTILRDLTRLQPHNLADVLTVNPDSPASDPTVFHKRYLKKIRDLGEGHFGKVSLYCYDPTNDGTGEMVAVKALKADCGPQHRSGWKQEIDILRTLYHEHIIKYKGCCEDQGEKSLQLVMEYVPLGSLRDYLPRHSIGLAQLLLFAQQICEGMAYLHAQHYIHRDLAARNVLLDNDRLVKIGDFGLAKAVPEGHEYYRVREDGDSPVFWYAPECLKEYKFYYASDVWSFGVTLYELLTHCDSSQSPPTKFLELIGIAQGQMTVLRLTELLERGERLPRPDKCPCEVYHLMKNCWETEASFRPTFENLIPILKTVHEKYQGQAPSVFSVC

Compound | JAK 1 (pKi) (JAK1) | JAK 2 (pKi) (JAK2) | JAK 3 (pKi) (JAK3) | JAK3 (pKi)-JAK1 (pKi) (JAK3; [2]) | Tyk 2 (pKi) (Tyk2) | Tall-1 (pIC50) [1, 3] | JAK3 (pKi)-JAK1 (pKi) (JAK3; [4]) | Tall-1 (pIC50) [1, 5]
C=CC(=O)N1CC(CCn2c(=O)ccc3cnc(Nc4ccc(N5CCN(C)CC5)c(C#N)c4)nc32)C1 [Example 9, 5-((8-(2-(1-acryloylazetidin-3-yl)ethyl)-7-oxo-7,8-dihydropyrido[2,3-d]pyrimidin-2-yl)amino)-2-(4-methylpiperazin-1-yl)benzonitrile] | E (E represents a pKi value of 7 or below (Ki of 100 nM or above)) | E (E represents a pKi value of 7 or below (Ki of 100 nM or above)) | B (B represents pKi value between 9 and 10 (Ki between 1 nM and 0.1 nM)) | A (A represents a value of 3 or above) | E (E represents a pKi value of 7 or below (Ki of 100 nM or above)) | B (B represents a pC50 value between 6.7 (included) and 7.5 (IC50 between 200 nM and 32 nM)) |  | 
CN(C)C/C=C/C(=O)N1CC(CCn2c(=O)ccc3cnc(Nc4ccc(N5CCN(C)CC5)cn4)cc32)C1 [Example 11, (E)-1-(2-(1-(4-(dimethylamino)but-2-enoyl)azetidin-3-yl)ethyl)-7-((5-(4-methylpiperazin-1-yl)pyridin-2-yl)amino)-1,6-naphthyridin-2(1H)-one] | E (E represents a pKi value of 7 or below (Ki of 100 nM or above)) | E (E represents a pKi value of 7 or below (Ki of 100 nM or above)) | B (B represents pKi value between 9 and 10 (Ki between 1 nM and 0.1 nM)) | A (A represents a value of 3 or above) | E (E represents a pKi value of 7 or below (Ki of 100 nM or above)) | B (B represents a pC50 value between 6.7 (included) and 7.5 (IC50 between 200 nM and 32 nM)) |  | 
C=CC(=O)N1CC(CCn2c(=O)ccc3cnc(Nc4ccc(N5CCN(C)CC5)c(Cl)c4)nc32)C1 [Example 17] | E (E represents a pKi value of 7 or below (Ki of 100 nM or above)) | E (E represents a pKi value of 7 or below (Ki of 100 nM or above)) | B (B represents pKi value between 9 and 10 (Ki between 1 nM and 0.1 nM)) | A (A represents a value of 3 or above) | E (E represents a pKi value of 7 or below (Ki of 100 nM or above)) | B (B represents a pC50 value between 6.7 (included) and 7.5 (IC50 between 200 nM and 32 nM)) |  | 
C=CC(=O)N1CCN(CCn2c(=O)ccc3cnc(Nc4ccn(CC)n4)nc32)[C@@H](CC)C1 [Example 256] | E (E represents a pKi value of 7 or below (Ki of 100 nM or above)) |  | B (B represents pKi value between 9 and 10 (Ki between 1 nM and 0.1 nM)) |  |  |  | A (A represents a value of 3 or above) | C (C represents a pIC50 value between 6 and 6.7 (IC50 between 1 μM and 200 nM))
C=CC(=O)N1CC(CCn2c(=O)ccc3cnc(Nc4ccn(C(C)C)n4)nc32)C1 [Example 257] | E (E represents a pKi value of 7 or below (Ki of 100 nM or above)) |  | B (B represents pKi value between 9 and 10 (Ki between 1 nM and 0.1 nM)) |  |  |  | A (A represents a value of 3 or above) | B (B represents a pC50 value between 6.7 (included) and 7.5 (IC50 between 200 nM and 32 nM))
C=CC(=O)N1CCN(CCn2c(=O)ccc3cnc(Nc4ccn(C(C)C)n4)nc32)[C@@H](C)C1 [Example 258] | E (E represents a pKi value of 7 or below (Ki of 100 nM or above)) |  | B (B represents pKi value between 9 and 10 (Ki between 1 nM and 0.1 nM)) |  |  |  | A (A represents a value of 3 or above) | C (C represents a pIC50 value between 6 and 6.7 (IC50 between 1 μM and 200 nM))
C=CC(=O)N1CCN(CCn2c(=O)ccc3cnc(Nc4ccn(C(C)C)n4)nc32)[C@@H](CC)C1 [Example 259] | E (E represents a pKi value of 7 or below (Ki of 100 nM or above)) |  | B (B represents pKi value between 9 and 10 (Ki between 1 nM and 0.1 nM)) |  |  |  | A (A represents a value of 3 or above) | C (C represents a pIC50 value between 6 and 6.7 (IC50 between 1 μM and 200 nM))
C=CC(=O)N1CC(C)(CCn2c(=O)ccc3cnc(Nc4ccc(N5CCN(C)CC5)cc4)nc32)C1 [Example 260] | E (E represents a pKi value of 7 or below (Ki of 100 nM or above)) |  | B (B represents pKi value between 9 and 10 (Ki between 1 nM and 0.1 nM)) |  |  |  | A (A represents a value of 3 or above) | A (A represents a pIC50 value≥7.5 (IC50≤32 nM))
C=CC(=O)N1CCN(CCn2c(=O)ccc3cnc(Nc4cnn(C)c4)nc32)[C@@H](CC#N)C1 [Example 261] | E (E represents a pKi value of 7 or below (Ki of 100 nM or above)) |  | B (B represents pKi value between 9 and 10 (Ki between 1 nM and 0.1 nM)) |  |  |  | A (A represents a value of 3 or above) | B (B represents a pC50 value between 6.7 (included) and 7.5 (IC50 between 200 nM and 32 nM))
C=CC(=O)N1CCN(CCn2c(=O)ccc3cnc(Nc4cnn(C)c4)nc32)[C@@H](CN(C)C)C1 [Example 262] | E (E represents a pKi value of 7 or below (Ki of 100 nM or above)) |  | C (C represents a pKi value between 8 and 9 (Ki between 10 nM and 1 nM)) |  |  |  | B (B represents a value of 2.5 to 3) | C (C represents a pIC50 value between 6 and 6.7 (IC50 between 1 μM and 200 nM))
C=CC(=O)N1CCN(CCn2c(=O)ccc3cnc(Nc4ccc(N5C[C@@H](C)N(C)[C@H](C)C5)cc4)nc32)[C@@H](CC)C1 [Example 263] | E (E represents a pKi value of 7 or below (Ki of 100 nM or above)) |  | B (B represents pKi value between 9 and 10 (Ki between 1 nM and 0.1 nM)) |  |  |  | A (A represents a value of 3 or above) | A (A represents a pIC50 value≥7.5 (IC50≤32 nM))
C=CC(=O)N1CC(CCn2c(=O)ccc3cnc(Nc4ccc(N5C[C@@H](C)N(C)[C@H](C)C5)cc4)nc32)C1 [Example 264] | E (E represents a pKi value of 7 or below (Ki of 100 nM or above)) |  | B (B represents pKi value between 9 and 10 (Ki between 1 nM and 0.1 nM)) |  |  |  | A (A represents a value of 3 or above) | A (A represents a pIC50 value≥7.5 (IC50≤32 nM))
